The values that follow are results of earlier work, collected in patent publication US12318376B2, “Compositions of a polyorthoester and an aprotic solvent” (Heron Therapeutics, Inc., priority 2013, dated 2025).

For the data set the following is noted: for Water Miscibility: solvent in water, room temperature (20-25° C.).

For the molecule `CN1CCCC1=O` [N-methyl-2-pyrrolidone (NMP), N-methyl-2-pyrrolidone], the “Water Miscibility” value is “water miscible”.
For the molecule `COC(C)=O` [methyl acetate], the “Water Miscibility” value was “water miscible”.
`O=C1CCCCCO1` [ester-caprolactone]: the “Water Miscibility” value was “water miscible”.
Consider `CCOC(=O)C(C)O` (stereo not drawn) [ethyl lactate], for which the “Water Miscibility” value was “water miscible”.
Regarding `CCN1CCCC1=O` [n-ethyl-2-pyrrolidone], the “Water Miscibility” value is “water miscible”.
Consider `O=C1CCCN1C1CCCCC1` [N-cyclohexyl-2-pyrrolidone], for which the “Water Miscibility” value is given as “poorly miscible”.
Consider `COC(=O)C(C)O` (stereo not drawn) [methyl lactate], for which the “Water Miscibility” value was “water miscible”.
Take `CC1COC(=O)O1` (stereo not drawn) [4-methyl-1,3-diololan-2-one]: the “Water Miscibility” value is given as “water miscible”.
Consider `CCCCCCCCCCCCCC(=O)OC(C)C` [isopropyl myristate], for which the “Water Miscibility” value is listed as “poorly miscible”.
On to `CCOC(C)=O` [ethyl acetate], for which the “Water Miscibility” value is recorded as “partially miscible”. In addition, the “Water Miscibility (amount in brackets)” value (printed in brackets under the miscibility class) is given as “(8.3 g/100 ml)”.
As to `C[S+](C)[O-]` [dimethyl sulfoxide], the “Water Miscibility” value is on record as “water miscible”.
`CCCCCCCC/C=C\CCCCCCCC(=O)OCC` [ethyl oleate]: the “Water Miscibility” value is reported as “poorly miscible”.
Regarding `O=C(OCc1ccccc1)c1ccccc1` [benzyl benzoate], the “Water Miscibility” value is on record as “poorly miscible”.
For `C1CCOC1` [tetrahydrofuran], the “Water Miscibility” value was “water miscible”.
